Measurements: BindingDB's records for patent US9394289 (Janssen Pharmaceutica, 2016)

Target: Macrophage colony-stimulating factor 1 receptor (Homo sapiens, UniProt P07333)
Experiment: Fluorescence Polarization Competition Immunoassay
Details: pH 7.5; 25 °C
Procedure: The assay buffer used was 100 mM 4-(2-hydroxyethyl)piperazine 1-ethanesulfonic acid (HEPES), pH 7.5, 1 mM 1,4-dithio-DL-threitol (DTT), 0.01% (v/v) Tween-20. Compounds were diluted in assay buffer containing 4% dimethylsulfoxide (DMSO) just prior to the assay. To each well, 5 μL of compound were added followed by the addition of 3 μL of a mix containing 33 nM c-fms (Johnson & Johnson PRD) and 16.7 mM MgCl2 (Sigma) in assay buffer. The kinase reaction was initiated by adding 2 μL of 5 mM ATP (Sigma) in assay buffer. The final concentrations in the assay were 10 nM c-fms, 1 mM ATP, 5 mM MgCl2, 2% DMSO. Control reactions were ran in each plate: in positive and negative control wells, assay buffer (made 4% in DMSO) was substituted for the compound; in addition, positive control wells received 1.2 μL of 50 mM ethylenediaminetetraaceticacid (EDTA). The plates were incubated at room temperature for 45 min. At the end of the incubation, the reaction was quenched with 1.2 μL of 50 mM EDTA (EDTA was not added to the positive control wells at this point; see above). Following a 5-min incubation, each well received 10 μL of a 1:1:3 mixture of anti-phosphotyrosine antibody, 10×, PTK green tracer, 10× (vortexed), FP dilution buffer, respectively (all from PanVera, cat. #P2837). The plate was covered, incubated for 30 min at room temperature and the fluorescence polarization was read on the Analyst. […]

Sequence of Macrophage colony-stimulating factor 1 receptor (P07333 whole entry): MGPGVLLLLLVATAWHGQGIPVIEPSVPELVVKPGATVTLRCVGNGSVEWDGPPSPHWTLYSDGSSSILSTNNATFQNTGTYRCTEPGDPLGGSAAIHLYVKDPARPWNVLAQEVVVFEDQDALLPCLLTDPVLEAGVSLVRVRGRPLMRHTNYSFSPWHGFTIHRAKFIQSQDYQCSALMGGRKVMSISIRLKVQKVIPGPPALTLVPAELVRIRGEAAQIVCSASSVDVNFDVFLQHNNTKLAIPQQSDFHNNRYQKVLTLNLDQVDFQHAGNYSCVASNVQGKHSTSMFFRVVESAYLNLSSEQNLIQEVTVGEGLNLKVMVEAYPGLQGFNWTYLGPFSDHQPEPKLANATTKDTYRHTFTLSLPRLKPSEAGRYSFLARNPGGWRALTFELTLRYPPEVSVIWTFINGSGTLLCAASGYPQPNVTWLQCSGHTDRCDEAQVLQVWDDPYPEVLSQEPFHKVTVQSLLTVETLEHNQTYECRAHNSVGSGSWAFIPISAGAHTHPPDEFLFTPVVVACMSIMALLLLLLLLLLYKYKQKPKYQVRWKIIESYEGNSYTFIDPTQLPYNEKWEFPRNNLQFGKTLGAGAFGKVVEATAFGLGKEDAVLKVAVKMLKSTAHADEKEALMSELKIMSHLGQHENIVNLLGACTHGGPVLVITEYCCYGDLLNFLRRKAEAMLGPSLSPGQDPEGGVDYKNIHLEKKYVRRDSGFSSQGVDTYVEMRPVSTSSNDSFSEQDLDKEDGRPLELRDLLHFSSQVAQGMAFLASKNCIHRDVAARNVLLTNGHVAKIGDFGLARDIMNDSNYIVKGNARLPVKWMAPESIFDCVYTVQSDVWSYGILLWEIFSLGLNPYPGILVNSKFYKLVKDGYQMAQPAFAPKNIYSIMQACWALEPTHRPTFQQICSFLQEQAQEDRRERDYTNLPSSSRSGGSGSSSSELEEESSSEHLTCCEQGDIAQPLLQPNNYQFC

- IC50: 2.9 nM
SMILES: N#Cc1c[nH]c(C(=O)Nc2ccc(C3(O)CCS(=O)(=O)CC3)cc2C2=CCCCC2)n1 [US9394289, 15]
